Assay results as given in patent US5872097A, “Oligopeptides with affinity to opioid receptors” (Pharmacia & Upjohn Aktiebolag, priority 1992, dated 1999).
Bridge positions count the residues as written; N and C are the ends. Square brackets hold non-standard residues; d marks the D form. Ends that are not written are not given here. Peptide text beside a SMILES is read from it. Dab = NCC[C@H](N)C(=O)O

How the values were obtained:
[1] = biological target: T1, μ-receptor ((3H)-DAGO binding site) (Rattus norvegicus, UniProt P33535); experiment: (3H)-DAGO binding assay, rat brain homogenates; details: duplicate determination, one site model, EBDA/LIGAND
T1 construct: from tissue; host or cells: rat brain (homogenate / synaptic plasma membranes, whole brain without cerebellum)
T1 sequence (P33535 whole entry): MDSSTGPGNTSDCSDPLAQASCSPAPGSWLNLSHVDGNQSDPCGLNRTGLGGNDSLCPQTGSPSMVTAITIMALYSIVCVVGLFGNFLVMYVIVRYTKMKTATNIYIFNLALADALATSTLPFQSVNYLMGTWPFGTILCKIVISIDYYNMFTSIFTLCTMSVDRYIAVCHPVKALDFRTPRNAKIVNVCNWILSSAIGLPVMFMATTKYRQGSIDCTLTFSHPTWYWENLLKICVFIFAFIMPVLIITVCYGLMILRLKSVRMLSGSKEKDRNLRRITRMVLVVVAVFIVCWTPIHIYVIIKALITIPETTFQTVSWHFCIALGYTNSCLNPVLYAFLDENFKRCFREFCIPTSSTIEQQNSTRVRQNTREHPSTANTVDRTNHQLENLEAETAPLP
Excerpt: (§1) In the experiments noted in FIGS. 3 and 4 and in Table 1 (^3 H)-(D-Ala^2,MePhe^4,Gly-ol^5)-enkephalin (DAGO or DAMGO) and (^3 H)-(D-Ala^2,D-Leu^5)-enkephalin (DADL) purchased from Amersham (Buckinghamshire, England) were used as radioligands in a binding assay performed as in Reg.
(§2) In the publication β-Casomorphins and Related Peptides Ed.

[2] = biological target: T2, δ-receptor ((3H)-DADL binding site) (Rattus norvegicus, UniProt P33533); experiment: (3H)-DADL binding assay, rat brain homogenates; details: duplicate determination, one site model, EBDA/LIGAND
T2 construct: from tissue; host or cells: rat brain homogenate
T2 sequence (P33533 whole entry): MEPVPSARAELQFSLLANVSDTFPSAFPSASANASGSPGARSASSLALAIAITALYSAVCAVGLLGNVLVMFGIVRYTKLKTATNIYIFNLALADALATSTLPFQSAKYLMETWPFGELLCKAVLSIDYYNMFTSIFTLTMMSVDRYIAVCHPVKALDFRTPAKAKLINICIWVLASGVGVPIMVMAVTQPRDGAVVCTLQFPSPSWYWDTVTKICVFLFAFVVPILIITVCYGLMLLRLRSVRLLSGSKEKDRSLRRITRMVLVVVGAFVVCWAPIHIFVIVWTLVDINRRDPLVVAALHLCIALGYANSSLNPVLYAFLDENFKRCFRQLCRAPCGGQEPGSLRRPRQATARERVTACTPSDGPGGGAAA
Excerpt: as §1, §2

μ-receptor = biological target: T3, μ-receptor (Rattus norvegicus, UniProt P33535); experiment: (3H)-DAMGO displacement receptor assay; type: binding; details: LIGAND program; for IC50: displacement of (3H)-DAMGO specific binding, radioligand about 24 x 10^-10 M
T3 construct: from tissue; host or cells: rat brain (homogenate / synaptic plasma membranes, whole brain without cerebellum)
T3 sequence (P33535 whole entry): as the sequence (P33535 whole entry) above
Procedure: as §1
(§3) The peptides were employed for both receptor tests and bioassays on electrically stimulated guinea pig ileum strips (GPI-tests). The receptor assays were performed in the same manner as above with DAMGO as a radioligand to the μ-receptor. In the assays (^3 H)-DAMGO specific binding was displaced by the different tested substances (10^-5 M to 10^-10 M). […] Ups. […] The magnitude of activity in relation to a standard compound, normorphine was recorded.

[3] = system: electrically stimulated guinea pig ileum strips; details: relative to standard compound normorphine = 1
Procedure: as §3

Compound	IC50 (μ-receptor) [nM]	GPI-test relative activity normorphine = 1 [3]	other results
CC(C)C[C@H](NC(=O)[C@H](CC(C)C)NC(=O)CNC(=O)[C@@H](N)Cc1ccc(O)cc1)C(=O)O [Tyr--Gly--Leu--Leu, Tyr-Gly-Leu-Leu] (H-YGLL-OH)			Ki [1]: 32000 nM; Ki [2]: 24000 nM
CC(C)C[C@@H]1NC(=O)[C@H](Cc2ccccc2)NC(=O)[C@@H](NC(=O)[C@@H](N)Cc2ccc(O)cc2)CCCCNC(=O)[C@H](CCC(=O)O)NC1=O (H-YKFLE; lactam 2-C)	0.055		
CSCC[C@H](NC(=O)[C@H](Cc1ccccc1)NC(=O)[C@@H](C)NC(=O)[C@@H](N)Cc1ccc(O)cc1)C(N)=O [Tyr-D-Ala-Phe-Met-NH2, reference compound] (H-Y[dA]FM-NH2)	0.15	0.5	
YSFLE-NH2 [Tyr-Ser-Phe-Leu-Glu-NH2]	2.6		
CC(C)C[C@H](NC(=O)[C@H](Cc1ccccc1)NC(=O)[C@@H](C)NC(=O)[C@@H](N)Cc1ccc(O)cc1)C(=O)N[C@@H](CCC(=O)O)C(=O)O [Tyr-D-Ala-Phe-Leu-Glu] (H-Y[dA]FLE-OH)	0.048	0.01	
CC(C)C[C@H](NC(=O)[C@H](Cc1ccccc1)NC(=O)[C@@H](C)NC(=O)[C@@H](N)Cc1ccc(O)cc1)C(N)=O [Tyr-D-Ala-Phe-Leu-NH2, reference compound] (H-Y[dA]FL-NH2)	0.1	0.3	
YPFVE [Tyr--Pro--Phe--Val--Glu, Tyr-Pro-Phe-Val-Glu, reference compound]			Ki [1]: 8900 nM
CC(C)C[C@@H]1NC(=O)[C@H](Cc2ccccc2)NC(=O)[C@@H](NC(=O)[C@@H](N)Cc2ccc(O)cc2)CCNC(=O)[C@H](CCC(=O)O)NC1=O (H-Y[Dab]FLE; lactam 2-C (inferred); N-terminus assumed)			Bmax (binding capacity) (μ-receptor; (3H)-DAMGO binding): 18.6 pmol
CC(C)C[C@@H]1NC(=O)[C@H](Cc2ccccc2)NC(=O)[C@@H](NC(=O)[C@@H](N)Cc2ccc(O)cc2)CSSC[C@@H](C(=O)O)NC1=O (H-YCFLC-OH; disulfide 2-5)	0.24		
YPFLE [Tyr-Pro-Phe-Leu-Glu]	0.024	0.01	
